Experimental data as given in article PMC10161222, “Small Molecule Decoys of Aggregation for Elimination of Aβ-Peptide Toxicity” (ACS Chemical Neuroscience, 2023).

Target: T1, Aβ40 (Homo sapiens, UniProt P05067)
T1 construct: gene APP; 40-residue peptide cut from APP; IC50 rows: purchased mixture of HiLyte Fluor 488- and HiLyte Fluor 647-labelled human peptide (AnaSpec); ThT and TEM rows: unlabelled human recombinant peptide; self-associating, small oligomers of at most 8 monomers
Experiment: FRET-FCS early aggregation, molecular brightness (counts per particle)
Format: biochemical
Details: inhibition of oligomer formation; HiLyte 488/647-labelled Aβ40 (about 100 nM + 200 nM), 20 mM HEPES pH 7.4

T1 sequence (P05067 672-711 limits assumed): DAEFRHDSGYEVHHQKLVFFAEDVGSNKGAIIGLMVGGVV

IC50: 130 nM
SMILES: COc1cc(-c2ccc(N=Nc3cc(S(=O)(=O)O)c4ccccc4c3O)c(OC)c2)ccc1N=Nc1cc(S(=O)(=O)O)c2ccccc2c1O [#2, NSC 9615]
